The supplement of paper PMC10307832

Columns and labels:
Test in all cases: relative viability (nuclei count vs DMSO), 5 days (fraction); higher = more cells survive
MK-2206 = compound: NC1(c2ccc(-c3nc4ccn5c(=O)[nH]nc5c4cc3-c3ccccc3)cc2)CCC1 [MK-2206]
In short: (§1)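 Viability was defined as treated-well nuclei divided by vehicle-well nuclei, with the median taken over replicate plates. Cells from lung cancer lines sat overnight at 37 °C in 1536-well plates, received five √10-spaced library-drug doses by pinning on vehicle-anchored plates, and grew 5 days without medium change before one-step fixation, permeabilisation and Hoechst staining, 4× imaging and MetaXpress nuclear counts. Only plates with control CV under 25% and at least one doubling were kept.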

Pictilisib = compound: CS(=O)(=O)N1CCN(Cc2cc3nc(-c4cccc5[nH]ncc45)nc(N4CCOCC4)c3s2)CC1 [Pictilisib]
In short: as §1

Pictilisib + Lapatinib = compound: CS(=O)(=O)N1CCN(Cc2cc3nc(-c4cccc5[nH]ncc45)nc(N4CCOCC4)c3s2)CC1 [Pictilisib] + CS(=O)(=O)CCNCc1ccc(-c2ccc3ncnc(Nc4ccc(OCc5cccc(F)c5)c(Cl)c4)c3c2)o1 [Lapatinib] (partner 2 µM)
In short: (§2)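 Lung cancer cell lines in 1536-well plates were dosed by pin tool the day after seeding, either with one drug alone or with a fixed anchor-drug dose plus five library-drug doses (not always all listed) in √10 steps. After 5 days, cells were fixed and their nuclei stained in one step (final 0.05% Triton X-100, 1% formaldehyde, 1 ug/ml Hoechst), then counted on 4× images. Relative viability is the nuclei count in treated wells divided by that in vehicle wells. Values are medians of duplicate plates.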

MK-2206 + Vorinostat = compound: NC1(c2ccc(-c3nc4ccn5c(=O)[nH]nc5c4cc3-c3ccccc3)cc2)CCC1 [MK-2206] + O=C(CCCCCCC(=O)Nc1ccccc1)NO [Vorinostat] (partner 1 µM)
In short: as §2

Cell Line	relative viability (MK-2206; 0.01 µM)	relative viability (MK-2206; 0.03162 µM)	relative viability (MK-2206; 0.3162 µM)	relative viability (MK-2206; 1 µM)	relative viability (Pictilisib; 0.02 µM)	relative viability (Pictilisib; 0.06325 µM)	relative viability (Pictilisib; 0.6325 µM)	relative viability (Pictilisib; 1 µM, anchor plate)	relative viability (Pictilisib; 2 µM)	relative viability (Pictilisib + Lapatinib; first compound 0.02 µM)	relative viability (Pictilisib + Lapatinib; first compound 0.06325 µM)	relative viability (Pictilisib + Lapatinib; first compound 0.6325 µM)	relative viability (Pictilisib + Lapatinib; first compound 2 µM)	relative viability (MK-2206 + Vorinostat; first compound 0.01 µM)	relative viability (MK-2206 + Vorinostat; first compound 0.03162 µM)	relative viability (MK-2206 + Vorinostat; first compound 0.3162 µM)	relative viability (MK-2206 + Vorinostat; first compound 1 µM)
NCI-H647	0.951	1.11	0.921	0.744	1.09	1.03	0.78	0.476	0.471	1.15	1.11	0.833	0.429	0.569	0.429	0.567	0.654
BEN	0.97	1.08	1.07	0.836	1	1.01	0.951	0.57	0.75	0.715	0.755	0.844	0.498	0.54	0.582	0.514	0.555
201T	0.987	1.03	0.982	0.995	0.97	0.964	0.921	0.702	0.64	1.02	1.01	0.969	0.933	0.963	1.06	0.988	1.09
LC-2-ad	0.969	1.05	0.994	0.876	1.05	1.07	0.619	0.496	0.594	0.989	1.13	0.506	0.439	0.663	0.72	0.753	0.665
LCLC-97TM1	0.941	1.05	0.968	0.829	0.928	0.932	0.791	0.199	0.217	0.672	0.93	0.768	0.446	0.578	0.779	0.625	0.734
NCI-H1915	1	1.06	0.967	0.95	1.06	1.04	0.95	0.96	0.909	0.96	1.02	0.916	0.935	0.567	0.511	0.483	0.534
NCI-H3122	1.02	1.03	1.05	0.984	1.01	1.04	0.954	0.644	0.511	1.01	1.15	1.13	0.737	0.924	0.969	0.944	0.871
NCI-H1650	0.854	1.01	0.883	0.946	1	1.01	0.809	0.598	0.532	1.02	0.806	0.672	0.51	0.532	0.612	0.656	0.519
NCI-H1993	0.907	0.987	0.737	0.618	0.94	0.869	0.639	0.766	0.674	0.878	0.895	0.783	0.705	0.765	0.962	0.611	0.504
NCI-H2405	1.02	1.03	0.968	0.839	1.07	0.977	0.851	0.433	0.451	1.2	1.05	0.801	0.505	1.04	1.09	1.07	0.894
NCI-H661	0.997	1.02	1.03	1.01	1.02	1.05	1.03	0.424	0.672	0.461	0.444	0.447	0.27	0.759	0.737	0.767	0.681
